Measurements published in patent US20090131356A1, “miR-15, miR-26, miR-31, miR-145, miR-147, miR-188, miR-215, miR-216, miR-331, mmu-miR-292-3P REGULATED GENES AND PATHWAYS AS TARGETS FOR THERAPEUTIC INTERVENTION” (ASURAGEN, INC., priority 2006, published 2009).

Tests used:
[1] = test system: parental lung cancer cells; test: Alamar Blue proliferation assay, average over parental lung cancer cell lines; assay type: cell-based, human; conditions: average of 12 parental lung cancer cell lines; vs negative control miRNA (=100%); 72 hours (Calu-3 10 days)
Text: The inventors assessed the therapeutic effect of hsa-miR-147 for lung cancer by using 12 individual lung cancer cell lines. To measure cellular proliferation of lung cancer cells, the following parental non-small cell lung cancer (NSCLC) cells were used: cells derived from lung adenocarcinoma (A549, H1299, H522, H838, Calu-3, HCC827, HCC2935), cells derived from lung squamous cell carcinoma (H520, H226), cells derived from lung adenosquamous cell carcinoma (H596), cells derived from lung bronchioalveolar carcinoma (H1650), and cells derived from lung large cell carcinoma (H460). In addition to these parental cell lines, highly metastatic NSCLC cells were used that stably express the firefly luciferase gene: A549-luc, H460-luc, HCC827-luc, H1650-luc, H441-luc. Unlike the parental cell lines, these metastatic cells readily migrate to distant sites of the test animal and form metastases upon subcutaneous, orthotopic, or intravenous injection. Synthetic hsa-miR-147 or negative control miRNA was delivered via lipid-based transfection into A549, H1299, H522, H838, Calu-3, HCC827, HCC2935, H520, H596, H1650, H460, A549-luc, H460-luc, HCC827-luc, H1650-luc, H441-luc cells and via electroporation into H226 cells. […]

[2] = test system: PC3 human prostate cancer cells; test: Long-term growth curve with repeated electroporation, PC3; assay type: cell-based; conditions: 1.6 μM electroporated, repeated on days 7 and 14; by day 21
Method: To evaluate the therapeutic activity of hsa-miR-147 over an extended period of time, the inventors conducted growth curve experiments in the presence of miRNA for up to 21 days. Since in vitro transfections of naked interfering RNAs, such as synthetic miRNA, are transient by nature and compromised by the dilution of the oligo during ongoing cell divisions, miRNA was administered at multiple time points (Bartlett et al., 2006; Bartlett et al., 2007). To accommodate miRNA delivery into a large quantity of cells, the inventors employed the electroporation method to delivery hsa-miR-147 or negative control miRNA into PC3 and Du145 human prostate cancer cells. Briefly, 1×10^6 PC3 cells and 0.5×10^6 Du145 cells were electroporated with 1.6 μM hsa-miR-147 or negative control using the BioRad Gene Pulser Xcell™ instrument (BioRad Laboratories Inc., Hercules, Calif., USA), seeded and propagated in regular growth medium. Experiments with PC3 and Du145 cells were carried out in triplicates. When the control cells reached confluence (days 7 and 14), cells were harvested, counted and electroporated again with the respective miRNAs. […] The population doubling was calculated from these electroporation events using the formula PD=ln(Nf/N0)/ln2 and adjusting for the fact that approximately 72% of newly seeded cells adhere to the plate. […]

H226 lung cancer cells = test: Long-term growth curve with repeated electroporation, H226; assay type: cell-based, human; conditions: 1.6 μM electroporated, repeated on days 6, 17 and 25; day 31; relative to control cells (100%)
Method: To evaluate the therapeutic activity of hsa-miR-147 over an extended period of time, the inventors conducted growth curve experiments in the presence of miRNA for up to 31 days in H226 lung cancer cells. Since in vitro transfections of naked interfering RNAs, such as synthetic miRNA, are transient by nature and compromised by the dilution of the oligo during ongoing cell divisions, miRNA was administered at multiple time points (Bartlett et al., 2006; Bartlett et al., 2007). To accommodate miRNA delivery into a large quantity of cells, hsa-miR-147 or negative control miRNA were delivered by the electroporation method. Briefly, 1×10^6 H226 were electroporated in triplicate with 1.6 μM hsa-miR-147 or negative control using the BioRad Gene Pulser Xcell™ instrument (BioRad Laboratories Inc., Hercules, Calif., USA), seeded and propagated in regular growth medium. When the control cells reached confluence (days 6, 17 and 25), cells were harvested, counted and electroporated again with the respective miRNAs. […] The population doubling was calculated from these electroporation events using the formula PD=ln(Nf/N0)/ln2 and adjusting for the fact that approximately 72% of newly seeded cells adhere to the plate. […]

In the case of “hsa-miR-147: Synthetic pre-miR-147 (Ambion AM17100; Dharmacon in vivo); mature sequence GUGUGUGGAAAUGCUUCUGC, MIMAT0000251, SEQ ID NO:114 (synthetic pre-miR (Ambion/Dharmacon), chemistry not given here; listed as Homo sapiens)”, the “inhibition of cellular proliferation, on average” value [1] is reported as 25%, the “fate of PC3 cells in long-term growth curve” value [2] is reported as “eliminated” and the “inhibition of H226 cell growth” value (H226 lung cancer cells) is reported as 90.9%. The remaining cells (H226 lung cancer cells) was 9.1%.
